According to publication PMC9076199 (RSC Advances, 2019):

Columns and labels:
[1] = target: T1, human carboxylesterase 2 (CES2) (Homo sapiens, UniProt O00748); experiment: Inhibition of CES2-mediated FD; assay type: biochemical; conditions: for selectivity for CES2 over CES1 (in words): CES2 versus CES1 IC50
T1 sequence (O00748 27-559): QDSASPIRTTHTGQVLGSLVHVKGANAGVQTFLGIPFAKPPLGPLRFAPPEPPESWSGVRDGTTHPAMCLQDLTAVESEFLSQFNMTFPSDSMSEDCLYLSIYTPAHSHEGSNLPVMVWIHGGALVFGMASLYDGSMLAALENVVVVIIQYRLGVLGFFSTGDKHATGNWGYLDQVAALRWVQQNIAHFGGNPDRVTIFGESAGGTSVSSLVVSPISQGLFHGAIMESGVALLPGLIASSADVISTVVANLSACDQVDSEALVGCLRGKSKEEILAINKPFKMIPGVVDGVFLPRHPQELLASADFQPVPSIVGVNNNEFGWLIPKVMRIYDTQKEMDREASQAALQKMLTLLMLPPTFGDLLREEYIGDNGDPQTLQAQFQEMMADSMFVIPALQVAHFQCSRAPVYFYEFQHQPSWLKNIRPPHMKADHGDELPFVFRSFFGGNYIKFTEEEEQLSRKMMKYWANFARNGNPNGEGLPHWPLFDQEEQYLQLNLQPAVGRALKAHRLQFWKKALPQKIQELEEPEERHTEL

[2] = target: T2, human carboxylesterase 1 (CES1) (Homo sapiens, UniProt P23141); experiment: Inhibition of CES1-mediated DME; assay type: biochemical
T2 sequence (P23141 18-567): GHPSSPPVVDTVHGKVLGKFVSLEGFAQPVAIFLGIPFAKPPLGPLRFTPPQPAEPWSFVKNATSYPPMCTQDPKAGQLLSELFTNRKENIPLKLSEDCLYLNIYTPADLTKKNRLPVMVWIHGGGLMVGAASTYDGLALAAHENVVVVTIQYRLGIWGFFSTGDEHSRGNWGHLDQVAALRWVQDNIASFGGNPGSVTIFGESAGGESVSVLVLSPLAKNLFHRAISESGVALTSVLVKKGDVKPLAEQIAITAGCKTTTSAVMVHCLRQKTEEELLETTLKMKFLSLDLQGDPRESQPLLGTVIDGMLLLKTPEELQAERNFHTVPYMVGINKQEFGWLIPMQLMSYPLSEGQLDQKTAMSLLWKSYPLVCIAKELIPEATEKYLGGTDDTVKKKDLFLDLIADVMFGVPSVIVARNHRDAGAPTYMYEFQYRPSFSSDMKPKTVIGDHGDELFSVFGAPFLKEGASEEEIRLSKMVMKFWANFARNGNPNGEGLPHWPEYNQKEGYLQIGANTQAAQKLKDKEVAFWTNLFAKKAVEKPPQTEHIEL

Row | Structure (SMILES) | IC50 [1] [nM] | selectivity for CES2 over CES1 (in words) [1] | IC50 [2] [nM]
1 | Cc1ccccc1C(c1c(C)[nH]c2ccccc12)c1c(C)[nH]c2ccccc12 [4b] | 560 ± 160 |  | 
2 | Cc1[nH]c2ccccc2c1C(c1ccccc1Br)c1c(C)[nH]c2ccccc12 [4k] | 350 ± 91 |  | 
3 | COc1ccc(C(c2c(C)[nH]c3ccccc23)c2c(C)[nH]c3ccccc23)cc1 [4g] | 150 ± 32 | good selectivity over CES1 | 2900 ± 240
4 | Cc1[nH]c2ccccc2c1C(c1ccc(Br)cc1)c1c(C)[nH]c2ccccc12 [4m] | 1210 ± 280 |  | 
5 | Cc1[nH]c2ccccc2c1C(c1ccc([N+](=O)[O-])cc1)c1c(C)[nH]c2ccccc12 [4p] | 1220 ± 200 |  | 
6 | COc1ccccc1C(c1c(C)[nH]c2ccccc12)c1c(C)[nH]c2ccccc12 [4e] | 200 ± 44 |  | 
7 | Cc1[nH]c2ccccc2c1C(c1ccccc1[N+](=O)[O-])c1c(C)[nH]c2ccccc12 [4n] | 190 ± 45 | good selectivity over CES1 | 3680 ± 430

Other lines, results leading:

Row | IC50 [1] [nM] | selectivity for CES2 over CES1 (in words) [1] | IC50 [2] [nM] | Structure (SMILES)
8 | 340 ± 91 |  |  | Cc1cccc(C(c2c(C)[nH]c3ccccc23)c2c(C)[nH]c3ccccc23)c1 [4c]
9 | 840 ± 230 |  |  | Cc1[nH]c2ccccc2c1C(c1ccc(Cl)cc1)c1c(C)[nH]c2ccccc12 [4j]
10 | 1280 ± 240 |  |  | COc1cccc(C(c2c(C)[nH]c3ccccc23)c2c(C)[nH]c3ccccc23)c1 [4f]
11 | 1230 ± 370 |  |  | Cc1[nH]c2ccccc2c1C(c1cccc(Cl)c1)c1c(C)[nH]c2ccccc12 [4i]
12 | 3170 ± 810 |  |  | Cc1[nH]c2ccccc2c1C(c1cccc(Br)c1)c1c(C)[nH]c2ccccc12 [4l]
13 | 280 ± 27 |  |  | Cc1ccc(C(c2c(C)[nH]c3ccccc23)c2c(C)[nH]c3ccccc23)cc1 [4d]
14 | 350 ± 110 |  |  | Cc1[nH]c2ccccc2c1C(c1cccc([N+](=O)[O-])c1)c1c(C)[nH]c2ccccc12 [4o]
15 | 570 ± 86 |  |  | Cc1[nH]c2ccccc2c1C(c1ccccc1Cl)c1c(C)[nH]c2ccccc12 [4h]
